Measurements reported in US8541397B2, “Alkyne and alkene derivatives as sphingosine 1-phosphate-1 receptor modulators” (Allergan, Inc., priority 2010, dated 2013).
pEC50: −log10 of the molar value.

Target: T1, human S1P1 receptor (Homo sapiens, UniProt P21453)
T1 construct: expressed in transfected cells; membranes used
Experiment: GTP γ35S binding assay for S1P1 activity
Assay type: biochemical
Conditions: activity potency, S1P1 receptor from GTP γ35S binding; membranes; test compounds 0.08 to 5,000 nM
Experimental: Compounds were synthesized and tested for S1P1 activity using the GTP γ^35S binding assay. These compounds may be assessed for their ability to activate or block activation of the human S1P1 receptor in cells stably expressing the S1P1 receptor.
GTP γ^35S binding was measured in the medium containing (mM) HEPES 25, pH 7.4, MgCl2 10, NaCl 100, dithitothreitol 0.5, digitonin 0.003%, 0.2 nM GTP γ^35S, and 5 μg membrane protein in a volume of 150 μl. Test compounds were included in the concentration range from 0.08 to 5,000 nM unless indicated otherwise. Membranes were incubated with 100 μM 5′-adenylylimmidodiphosphate for 30 min, and subsequently with 10 μM GDP for 10 min on ice. Drug solutions and membrane were mixed, and then reactions were initiated by adding GTP γ^35S and continued for 30 min at 25° C. Reaction mixtures were filtered over Whatman GF/B filters under vacuum, and washed three times with 3 mL of ice-cold buffer (HEPES 25, pH7.4, MgCl2 10 and NaCl 100). Filters were dried and mixed with scintillant, and counted for ^35S activity using a β-counter. Agonist-induced GTP γ^35S binding was obtained by subtracting that in the absence of agonist. Binding data were analyzed using a non-linear regression method. In case of antagonist assay, the reaction mixture contained 10 nM S1P in the presence of test antagonist at concentrations ranging from 0.08 to 5000 nM.

T1 sequence (P21453 whole entry): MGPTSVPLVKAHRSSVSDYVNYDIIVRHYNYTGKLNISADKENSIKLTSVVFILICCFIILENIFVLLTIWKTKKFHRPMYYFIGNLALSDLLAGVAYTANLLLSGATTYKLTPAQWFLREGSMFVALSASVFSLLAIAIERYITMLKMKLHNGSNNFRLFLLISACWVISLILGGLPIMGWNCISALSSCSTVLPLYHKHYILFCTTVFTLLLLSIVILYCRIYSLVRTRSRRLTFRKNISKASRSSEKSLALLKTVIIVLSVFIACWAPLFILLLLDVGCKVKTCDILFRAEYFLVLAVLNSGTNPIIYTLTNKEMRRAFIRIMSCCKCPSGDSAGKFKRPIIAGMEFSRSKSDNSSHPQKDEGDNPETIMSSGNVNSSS

pEC50 | Compound
6.58 | Cc1ccc(CC(C#Cc2ccc(CNCCC(=O)O)cc2C)c2cccc(Cl)c2)cc1C (stereo not drawn) [Compound 2, 3-{4-[3-(3-Chloro-phenyl)-4-(3,4-dimethyl-phenyl)-but-1-ynyl]-3-methyl-benzylamino}-propionic acid]
7.18 | Cc1ccc(CC(C#Cc2ccc(CNCCC(=O)O)cc2)c2cccc(Cl)c2)cc1C (stereo not drawn) [Compound 3, 3-({4-[3-(3-chlorophenyl)-4-(3,4-dimethylphenyl)but-1-yn-1-yl]benzyl}amino)propanoic acid]
6.30 | Cc1cccc(C(C#Cc2ccc(CNCCC(=O)O)cc2)Cc2ccc(C)c(C)c2)c1 (stereo not drawn) [Compound 4, 3-({4-[4-(3,4-dimethylphenyl)-3-(3-methylphenyl)but-1-yn-1-yl]benzyl}amino)propanoic acid]
6.93 | Cc1cccc(C(C#Cc2ccc(CNCCCP(=O)(O)O)cc2)Cc2ccc(C)c(C)c2)c1 (stereo not drawn) [Compound 9, (3-{4-[4-(3,4-Dimethyl-phenyl)-3-m-tolyl-but-1-ynyl]-benzylamino}-propyl)-phosphonic acid]
7.75 | Cc1ccc(CC(C#Cc2ccc(CNCCCP(=O)(O)O)cc2C)c2cccc(Cl)c2)cc1C (stereo not drawn) [Compound 10, (3-{4-[3-(3-Chloro-phenyl)-4-(3,4-dimethyl-phenyl)-but-1-ynyl]-3-methyl-benzylamino}-propyl)-phosphonic acid]
7.25 | Cc1cccc(C(C#Cc2ccc(CNCCCP(=O)(O)O)cc2C)Cc2ccc(C)c(C)c2)c1 (stereo not drawn) [Compound 11, [3-({4-[4-(3,4-dimethylphenyl)-3-(3-methylphenyl)but-1-yn-1-yl]-3 methylbenzyl}amino)propyl]phosphonic acid]
6.62 | Cc1ccc(CC(C#Cc2ccc(OCC(O)CO)c(Cl)c2)c2cccc(Cl)c2)cc1C (stereo not drawn) [Compound 19, 3-{2-chloro-4-[3-(3-chlorophenyl)-4-(3,4-dimethylphenyl)but-1-yn-1-yl]phenoxy}propane-1,2-diol]
6.22 | Cc1ccc(CC(C#Cc2ccc(OCC(O)CO)c(Cl)c2)c2cccc(F)c2)cc1C (stereo not drawn) [Compound 20, 3-{2-chloro-4-[4-(3,4-dimethylphenyl)-3-(3-fluorophenyl)but-1-yn-1-yl]phenoxy}propane-1,2-diol]
6.40 | Cc1cccc(C(C#Cc2ccc(OCC(O)CO)c(Cl)c2)Cc2ccc(C)c(C)c2)c1 (stereo not drawn) [Compound 21, 3-{2-chloro-4-[4-(3,4-dimethylphenyl)-3-(3-methylphenyl)but-1-yn-1-yl]phenoxy}propane-1,2-diol]

Second part, the compound before the results:

Compound | pEC50
COc1cccc(C(C#Cc2ccc(CNCCC(=O)O)cc2)Cc2ccc(C)c(C)c2)c1 (stereo not drawn) [Compound 1, 3-({4-[4-(3,4-dimethylphenyl)-3-(3-methoxyphenyl)but-1-yn-1-yl]benzyl}amino)propanoic acid] | 6.61
Cc1ccc(CC(C#Cc2ccc(CNCCC(=O)O)cc2)c2ccc(Cl)cc2)cc1C (stereo not drawn) [Compound 5, 3-({4-[3-(4-chlorophenyl)-4-(3,4-dimethylphenyl)but-1-yn-1-yl]benzyl}amino)propanoic acid] | 6.32
COc1cccc(C(C#Cc2ccc(CNCCCP(=O)(O)O)cc2)Cc2ccc(C)c(C)c2)c1 (stereo not drawn) [Compound 7, (3-{4-[4-(3,4-Dimethyl-phenyl)-3-(3-methoxy-phenyl)-but-1-ynyl]-benzylamino}-propyl)-phosphonic acid] | 6.80
Cc1ccc(CC(C#Cc2ccc(CNCCCP(=O)(O)O)cc2)c2cccc(Cl)c2)cc1C (stereo not drawn) [Compound 8, (3-{4-[3-(3-Chloro-phenyl)-4-(3,4-dimethyl-phenyl)-but-1-ynyl]-benzylamino}-propyl)-phosphonic acid] | 7.12
Cc1ccc(CC(C#Cc2ccc(CNCCCP(=O)(O)O)cc2C)c2cccc(F)c2)cc1C (stereo not drawn) [Compound 12, [3-({4-[4-(3,4-dimethylphenyl)-3-(3-fluorophenyl)but-1-yn-1-yl]-3-methylbenzyl}amino)propyl]phosphonic acid] | 5.72
Cc1ccc(CC(C#Cc2ccc(CNCCCP(=O)(O)O)cc2Br)c2cccc(F)c2)cc1C (stereo not drawn) [Compound 13, [3-({3-bromo-4-[4-(3,4-dimethylphenyl)-3-(3-fluorophenyl)but-1-yn-1-yl]benzyl}amino)propyl]phosphonic acid] | 8.22
Cc1ccc(CC(C#Cc2ccc(CNCCCP(=O)(O)O)cc2-c2ccco2)c2cccc(F)c2)cc1C (stereo not drawn) [Compound 14, [3-({4-[4-(3,4-dimethylphenyl)-3-(3-fluorophenyl)but-1-yn-1-yl]-3-(2-furyl)benzyl}amino)propyl]phosphonic acid] | 6.62
Cc1cccc(C(C#Cc2ccc(CNCCCP(=O)(O)O)cc2-c2cccs2)Cc2ccc(C)c(C)c2)c1 (stereo not drawn) [Compound 15, [3-({4-[4-(3,4-dimethylphenyl)-3-(3-methylphenyl)but-1-yn-1-yl]-3-(2-thienyl)benzyl}amino)propyl]phosphonic acid] | 6.75
Cc1ccc(CC(C#Cc2ccc(CNCCCP(=O)(O)O)cc2Br)c2cc(F)cc(F)c2)cc1C (stereo not drawn) [Compound 16, [3-({3-bromo-4-[3-(3,5-difluorophenyl)-4-(3,4-dimethylphenyl)but-1-yn-1-yl]benzyl}amino)propyl]phosphonic acid] | 7.51
Cc1cccc(C(C#Cc2ccc(CNCCCP(=O)(O)O)cc2-c2ccco2)Cc2ccc(C)c(C)c2)c1 (stereo not drawn) [Compound 17, [3-({4-[4-(3,4-dimethylphenyl)-3-(3-methylphenyl)but-1-yn-1-yl]-3-(2-furyl)benzyl}amino)propyl]phosphonic acid] | 7.23
Cc1ccc(CC(/C=C/c2ccc(CNCCC(=O)O)cc2)c2cccc(F)c2)cc1C (stereo not drawn) [Compound 22, 3-({4-[(1E)-4-(3,4-dimethylphenyl)-3-(3-fluorophenyl)but-1-en-1-yl]benzyl}amino)propanoic acid] | 6.58
Cc1ccc(CC(/C=C/c2ccc(CNCCCP(=O)(O)O)cc2)c2cccc(F)c2)cc1C (stereo not drawn) [Compound 23, [3-({4-[(1E)-4-(3,4-dimethylphenyl)-3-(3-fluorophenyl)but-1-en-1 yl]benzyl}amino)propyl]phosphonic acid] | 6.76
